Measured values published in publication PMC12682947, “Identification of New KCNT1‐Epilepsy Drugs by In Silico, Cell, and Drosophila Modeling” (Annals of Neurology, 2025).
Where a name gives a salt, the structure may show the parent alone.

Molecular target: T1, WT KCNT1 channels (Homo sapiens, UniProt Q5JUK3)
T1 construct: YFP-6His; expressed in transfected cells; host or cells: HEK293T
T1 sequence (Q5JUK3 1-1235 isoform Q5JUK3-3): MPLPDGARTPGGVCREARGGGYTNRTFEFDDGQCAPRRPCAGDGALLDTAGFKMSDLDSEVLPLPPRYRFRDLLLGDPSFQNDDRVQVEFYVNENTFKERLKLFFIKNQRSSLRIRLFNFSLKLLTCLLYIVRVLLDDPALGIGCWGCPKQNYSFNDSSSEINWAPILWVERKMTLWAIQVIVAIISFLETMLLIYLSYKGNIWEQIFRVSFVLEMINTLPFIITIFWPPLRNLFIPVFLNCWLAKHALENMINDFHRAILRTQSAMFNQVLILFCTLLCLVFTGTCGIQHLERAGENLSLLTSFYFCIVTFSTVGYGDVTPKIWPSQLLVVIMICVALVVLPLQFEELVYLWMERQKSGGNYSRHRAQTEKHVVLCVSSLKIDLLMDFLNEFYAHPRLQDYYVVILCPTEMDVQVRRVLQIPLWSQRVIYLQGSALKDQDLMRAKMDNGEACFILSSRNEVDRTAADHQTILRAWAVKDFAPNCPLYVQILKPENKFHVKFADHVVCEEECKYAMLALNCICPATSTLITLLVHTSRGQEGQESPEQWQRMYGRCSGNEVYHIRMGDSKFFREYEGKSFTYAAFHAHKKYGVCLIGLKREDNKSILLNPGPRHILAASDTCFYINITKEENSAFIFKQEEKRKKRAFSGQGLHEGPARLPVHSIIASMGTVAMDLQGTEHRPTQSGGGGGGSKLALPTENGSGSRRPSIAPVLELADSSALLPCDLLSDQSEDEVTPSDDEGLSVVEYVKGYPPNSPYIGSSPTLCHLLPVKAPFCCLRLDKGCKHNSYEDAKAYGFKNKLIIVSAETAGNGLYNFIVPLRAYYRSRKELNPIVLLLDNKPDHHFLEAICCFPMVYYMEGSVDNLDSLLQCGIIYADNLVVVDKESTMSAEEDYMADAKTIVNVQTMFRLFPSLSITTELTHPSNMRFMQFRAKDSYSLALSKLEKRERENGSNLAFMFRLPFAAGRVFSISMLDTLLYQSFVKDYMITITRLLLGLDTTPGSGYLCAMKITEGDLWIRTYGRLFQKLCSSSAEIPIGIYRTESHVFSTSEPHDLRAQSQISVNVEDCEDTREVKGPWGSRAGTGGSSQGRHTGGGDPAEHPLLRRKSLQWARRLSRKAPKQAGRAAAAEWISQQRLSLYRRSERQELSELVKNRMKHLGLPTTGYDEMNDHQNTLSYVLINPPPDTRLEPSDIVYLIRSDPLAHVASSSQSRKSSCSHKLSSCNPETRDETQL
Assay: Inside-out patch clamp of HEK293T cells expressing WT KCNT1 channels
Type: cell-based
Settings: inside-out patches; for inhibition at 0.05 µM: HEK-293T, 50 nM, read-out: inhibition of WT human KCNT1 channel activity; for IC50: WT, mean ± SEM
Description: The CHO cells were cultured in Dulbecco's modified Eagle's Medium (ThermoFisher, UK) supplemented with 10% (v/v) fetal bovine serum, 50 U/ml penicillin and 0.05 mg/ml streptomycin, and incubated at 37°C in 5% CO2 atmosphere. For whole cell recording of WT/Y796H KCNT1, CHO cells were transiently co‐transfected with concatemeric WT/Y796H and EYFP, as described previously.[29] For electrophysiological experiments, cells were plated onto borosilicate glass cover slips and used 2 to 4 days later. Human embryonic kidney 293T cells (HEK293T) were cultured in the same manner, but with medium supplemented with 2 mM L‐glutamine, and 1% (v/v) nonessential amino acids. For excised inside‐out recording of homomeric WT or mutant YFP‐tagged KCNT1, HEK293T cells plated on glass cover slips were transfected using Attractene Transfection Reagent (Qiagen, Germany) according to the manufacturer's instructions and used 2 to 3 days later.
Inside‐out patch clamp recordings were made at room temperature (23°C) from transiently transfected HEK293T cells, as described previously.[11] The pipette solution contained, in mM, 140 NaCl, 4 KCl, 2 CaCl2, 2 MgCl2, and 10 HEPES adjusted to pH 7.4 with NaOH. After achieving the inside‐out configuration, the intracellular face of the membrane was constantly perfused with a solution containing, in mM, 35 NaCl, 110 KCl, 0.2 EGTA, and 10 HEPES adjusted to pH 7.3 with KOH. Drug stock solutions of 5 to 20 mM in DMSO were first diluted in ethanol (1:10) and then in electrophysiological solution. KCNT1 currents were recorded using 2 voltage protocols, depending on the number of active channels in the patch before drug application. Macroscopic currents (number of active channels > 15) were recorded in response to 100 ms voltage ramps between −120 and 120 mV applied every 2 seconds from a holding potential of −78 mV. The average current amplitudes between 0 and 40 mV were used for the analyses and constructing the concentration‐response curves. With a lower number of active channels in the patch (3–15), current traces were recorded in response to 15‐second voltage steps to −20, 0, and 20 mV from a holding potential of −78 mV. Currents recorded at each voltage and each drug concentration were averaged over the duration of the trace and normalized to the average amplitudes of the corresponding current traces in drug‐free solution. The normalized data for all 3 voltage steps were then averaged for each drug concentration and used to build the concentration‐response curves (see Supplementary Fig S3). To determine the IC50, data were fitted with the Hill equation, as described previously.[11] Single channel data were analyzed using Ana software developed by Dr Michael Pusch (Istituto di Biofisica, Genova, Italy; http://users.ge.ibf.cnr.it/pusch/programs-mik.htm). In patch clamp data “n” represents number of cells, and all experiments were repeated using cells from a minimum of 2 separate transfections.

Row | Compound | inhibition at 0.05 µM [%] | IC50 [nM] | inhibition of KCNT1 activity at 10 μM (in words)
1 | O=C(OCCN1CCN(c2cccc(C(F)(F)F)c2)CC1)c1ccccc1Nc1ccnc2cc(C(F)(F)F)ccc12 [antrafenine] | > 60 | 12.6 ± 3.6 | –
2 | CC(C)c1c(C(=O)Nc2ccccc2)c(-c2ccccc2)c(-c2ccc(F)cc2)n1CC[C@@H](O)C[C@@H](O)CC(=O)O [atorvastatin] | – | 1900 ± 600 | not fully inhibiting
3 | Cc1c(O)cccc1C(=O)N[C@@H](CSc1ccccc1)[C@H](O)CN1C[C@H]2CCCC[C@H]2C[C@H]1C(=O)NC(C)(C)C [nelfinavir mesylate] | > 60 | 14.3 ± 2.6 | –
4 | CNC(=O)c1cc(Oc2ccc(NC(=O)Nc3ccc(Cl)c(C(F)(F)F)c3)c(F)c2)ccn1 [regorafenib] | – | – | not fully inhibiting
